Experimental data from BigSolDB 2.1.

CCOC(=O)[C@@H](N)Cc1ccccc1.Cl
solubility (mole fraction)
Details | 283.15 K | 288.15 K | 293.15 K | 298.15 K | 303.15 K | 308.15 K | 313.15 K | 318.15 K | 323.15 K
in 1,4-dioxane | – | 0.0023 | 0.00301 | 0.0037 | 0.00498 | 0.00668 | 0.00876 | 0.0115 | 0.0148
in 2-butoxyethanol | 0.035 | 0.039 | 0.0435 | 0.0473 | 0.052 | 0.0575 | 0.0633 | 0.0695 | 0.076
in 2-propoxyethanol | 0.042 | 0.0472 | 0.052 | 0.0557 | 0.0616 | 0.0675 | 0.0738 | 0.08 | 0.087
in THF | 0.00079 | 0.00102 | 0.00127 | 0.0016 | 0.00204 | 0.00257 | 0.00316 | 0.00398 | 0.00491
in isopropanol | 0.0074 | 0.00934 | 0.0117 | 0.0147 | 0.0189 | 0.0227 | 0.0278 | 0.0337 | 0.0413
in n-butanol | 0.0176 | 0.0218 | 0.0262 | 0.032 | 0.0355 | 0.0417 | 0.0509 | 0.0601 | 0.0696
in n-propanol | 0.0272 | 0.0316 | 0.0367 | 0.0423 | 0.0491 | 0.0566 | 0.0656 | 0.0734 | 0.0838
